These results are taken from patent US9187464B2, “TRPV4 antagonists” (GlaxoSmithKline Intellectual Property (No. 2) Limited, priority 2011, dated 2015).

For this assay, the target named is T1, human TRPV4 (Homo sapiens, UniProt Q9HBA0).
T1 construct: expressed in transfected cells; host or cells: HEK-293-MSR-II cells transduced with 1% BacMam virus
The assay is described as follows: Ligand-gated assay (Fluo4 calcium, FLIPR; inhibition of agonist-induced activation). Format: cell-based. To be noted: HEK-293-MSR-II cells transduced with BacMam human TRPV4; agonist at EC80. On the procedure: TRP channel activation/opening results in an influx of divalent and monovalent cations including calcium. The resulting changes in intracellular calcium were monitored using a calcium selective fluorescent dye Fluo4 (MDS Analytical Technologies). Dye loaded cells were initially exposed to test compound to verify a lack of agonist activity. Cells were subsequently activated by addition of an agonist and inhibition of the agonist-induced activation was recorded. Human embryonic kidney 293 cells stably expressing the macrophage scavenger receptor class II (HEK-293-MSR-II) and transduced with 1% BacMam (J. P. Condreay, S. M. Witherspoon, W. C. Clay and T. A. Kost, Proc Natl Acad Sci 96 (1999), pp. 127-132) virus expressing the human TRPV4 gene were plated at 15000 cells/well in a volume of 50 μL in a 384 well poly-D lysine coated plate. Cells were incubated for 24 hours at 37 degrees and 5% CO2. Media was then aspirated using a Tecan Plate-washer and replaced with 20 μL of dye loading buffer: HBSS, 500 uM Brilliant Black (MDS Analytical Technologies), 2 uM Fluo-4. Dye loaded plates were then incubated in the dark at room temperature for 1-1.5 hours. 10 μL of test compound diluted in HBSS (HBSS with 1.5 mM Calcium Chloride, 1.5 mM Magnesium Chloride and 10 mM HEPES. pH 7.4), +0.01% Chaps was added to the plate, incubated for 10 min at room temperature in the dark and then 10 μL of agonist was added at a final concentration equal to the agonist EC80. Calcium release was measured using the FLIPRtetra (MDS Analytical Technologies) or FLIPR384 (MDS Analytical Technologies).
IC50 between 0.1-10 nM (+++), >10-50 nM (++), >50-500 nM (+).

As usually defined, the IC50 is the midpoint of a concentration-inhibition curve.

Structures can show the parent of a compound that is named as a salt.

T1 sequence (Q9HBA0 whole entry): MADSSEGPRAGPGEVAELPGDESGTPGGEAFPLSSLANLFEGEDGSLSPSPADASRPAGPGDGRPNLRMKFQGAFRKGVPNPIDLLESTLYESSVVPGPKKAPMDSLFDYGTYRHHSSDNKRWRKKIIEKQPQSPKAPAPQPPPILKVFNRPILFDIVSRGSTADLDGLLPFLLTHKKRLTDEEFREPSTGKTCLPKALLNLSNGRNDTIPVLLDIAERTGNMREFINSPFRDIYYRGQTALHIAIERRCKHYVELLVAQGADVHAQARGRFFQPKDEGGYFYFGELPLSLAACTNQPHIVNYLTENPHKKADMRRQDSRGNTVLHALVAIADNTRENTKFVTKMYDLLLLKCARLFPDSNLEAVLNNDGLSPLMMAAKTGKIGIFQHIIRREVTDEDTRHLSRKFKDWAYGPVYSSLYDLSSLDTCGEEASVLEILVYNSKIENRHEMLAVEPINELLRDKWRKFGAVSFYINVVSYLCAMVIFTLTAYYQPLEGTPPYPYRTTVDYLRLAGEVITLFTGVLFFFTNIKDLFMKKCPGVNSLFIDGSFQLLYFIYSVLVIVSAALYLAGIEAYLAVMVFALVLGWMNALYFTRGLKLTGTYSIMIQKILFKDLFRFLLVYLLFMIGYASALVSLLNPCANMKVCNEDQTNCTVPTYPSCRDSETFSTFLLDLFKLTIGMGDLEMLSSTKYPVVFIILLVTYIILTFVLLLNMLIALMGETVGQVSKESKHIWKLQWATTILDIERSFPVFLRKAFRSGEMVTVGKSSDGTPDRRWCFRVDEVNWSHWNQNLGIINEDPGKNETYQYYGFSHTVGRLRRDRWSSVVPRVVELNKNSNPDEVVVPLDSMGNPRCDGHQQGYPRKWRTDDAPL

For the compound `CC(C)(CN1C[C@@]2(CCC[C@H](Cn3cnc4ccc(C#N)cc43)C2)OC1=O)c1nc(C(F)(F)F)no1` [Example 80, 1-[((5S,7S)-3-{2-methyl-2-[3-(trifluoromethyl)-1,2,4-oxadiazol-5-yl]propyl}-2-oxo-1-oxa-3-azaspiro[4.5]dec-7-yl)methyl]-1H-benzimidazole-6-carbonitrile], the IC50 lay within 0.0001 to 0.01 µM. `C[C@]1(Cn2cnc3ccc(C#N)cc32)CCC[C@@]2(CN(c3cnccc3C(F)(F)F)C(=O)O2)C1` [Example 144, 1-(((5S,7S)-7-methyl-2-oxo-3-(4-(trifluoromethyl)pyridin-3-yl)-1-oxa-3-azaspiro[4.5]decan-7-yl)methyl)-1H-benzo[d]imidazole-6-carbonitrile]: the IC50 is 0.0001 to 0.01 µM. With `CC(C)(C)c1cnc(N2C[C@@]3(CCC[C@](C)(Cn4cnc5ccc(C#N)cc54)C3)OC2=O)nc1` [Example 49, 1-(((5S,7S)-3-(5-(tert-butyl)pyrimidin-2-yl)-7-methyl-2-oxo-1-oxa-3-azaspiro[4.5]decan-7-yl)methyl)-1H-benzo[d]imidazole-6-carbonitrile], the IC50 was in the range of 0.0001 to 0.01 µM. On to `CC(C)(C)n1ncc(N2C[C@@]3(CCC[C@](C)(Cn4cnc5ccc(C#N)cc54)C3)OC2=O)n1` [Example 50, 1-(((5S,7S)-3-(2-(tert-butyl)-2H-1,2,3-triazol-4-yl)-7-methyl-2-oxo-1-oxa-3-azaspiro[4.5]decan-7-yl)methyl)-1H-benzo[d]imidazole-6-carbonitrile], for which the IC50 lay within 0.0001 to 0.01 µM. In the case of `N#Cc1cc(Cl)cc(-n2cc(CN3C[C@@]4(CCC[C@H](Cn5cnc6ccc(C#N)cc65)C4)OC3=O)nn2)c1` [Example 99, 1-[((5S,7S)-3-{[1-(3-chloro-5-cyanophenyl)-1H-1,2,3-triazol-4-yl]methyl}-2-oxo-1-oxa-3-azaspiro[4.5]dec-7-yl)methyl]-1H-benzimidazole-6-carbonitrile] it was 0.0001 to 0.01 µM. As for `CCOC(C)c1noc(C(C)(C)CN2C[C@@]3(CCC[C@H](Cn4cnc5ccc(C#N)cc54)C3)OC2=O)n1` (stereo partly drawn) [Example 28, 1-{[(5S,7S)-3-(2-{3-[1-(Ethyloxy)ethyl]-1,2,4-oxadiazol-5-yl}-2-methylpropyl)-2-oxo-1-oxa-3-azaspiro[4.5]dec-7-yl]methyl}-1H-benzimidazole-6-carbonitrile], the IC50 was 0.0001 to 0.01 µM.

Regarding `Cn1cc(-c2ccnc(CN3C[C@@]4(CCC[C@](C)(Cn5cnc6ccc(C#N)cc65)C4)OC3=O)c2)cn1` [Example 160, 1-(((5S,7S)-7-methyl-3-((4-(1-methyl-1H-pyrazol-4-yl)pyridin-2-yl)methyl)-2-oxo-1-oxa-3-azaspiro[4.5]decan-7-yl)methyl)-1H-benzo[d]imidazole-6-carbonitrile], the IC50 was 0.0001 to 0.01 µM. As to `COCc1noc(C(C)(C)CN2C[C@@]3(CCC[C@H](Cn4cnc5ccc(C#N)cc54)C3)OC2=O)n1` [Example 81, 1-{[(5S,7S)-3-(2-methyl-2-{3-[(methyloxy)methyl]-1,2,4-oxadiazol-5-yl}propyl)-2-oxo-1-oxa-3-azaspiro[4.5]dec-7-yl]methyl}-1H-benzimidazole-6-carbonitrile], the IC50 is 0.0001 to 0.01 µM.

Take `N#Cc1ccc2nc(C(F)(F)F)n(C[C@H]3CCC[C@]4(C3)CN(Cc3csc5ccc(Cl)cc35)C(=O)O4)c2c1` (stereo in doubt) [Example 60, 1-({3-[(5-chloro-1-benzothien-3-yl)methyl]-2-oxo-1-oxa-3-azaspiro[4.5]dec-7-yl}methyl)-2-(trifluoromethyl)-1H-benzimidazole-6-carbonitrile]: the IC50 is 0.05 to 0.5 µM. The value for `CCOc1cc(C)c(N2C[C@@]3(CCC[C@H](Cn4cnc5ccc(C#N)cc54)C3)OC2=O)cn1` [Example 23, 1-(((5S,7S)-3-(6-Ethoxy-4-methylpyridin-3-yl)-2-oxo-1-oxa-3-azasbiro[4.5]decan-7-yl)methyl)-1H-benzo[d]imidazole-6-carbonitrile] was 0.01 to 0.05 µM; that for `C[C@]1(Cn2cnc3ccc(C#N)cc32)CCCC2(CN(Cc3cc(F)ccn3)C(=O)O2)C1` (stereo in doubt) [Example 158, 1-(((5S,7S)-3-((4-fluoropyridin-2-yl)methyl)-7-methyl-2-oxo-1-oxa-3-azaspiro[4.5]decan-7-yl)methyl)-1H-benzo[d]imidazole-6-carbonitrile] was 0.0001 to 0.01 µM.

For `CCOc1cnc(N2C[C@@]3(CCC[C@](C)(Cn4cnc5ccc(C#N)cc54)C3)OC2=O)cn1` [Example 14, 1-(((5S,7S)-3-(5-Ethoxypyrazin-2-yl)-7-methyl-2-oxo-1-oxa-3-azaspiro[4.5]decan-7-yl)methyl)-1H-benzo[d]imidazole-6-carbonitrile], the IC50 was in the range of 0.0001 to 0.01 µM.

As for `N#Cc1ccc2ncn(C[C@H]3CCC[C@]4(C3)CN(Cc3cccc(-c5ccccc5)n3)C(=O)O4)c2c1` [Example 64, 1-({(5S,7S)-2-oxo-3-[(6-phenyl-2-pyridinyl)methyl]-1-oxa-3-azaspiro[4.5]dec-7-yl}methyl)-1H-benzimidazole-6-carbonitrile], the IC50 lay within 0.0001 to 0.01 µM. As for `N#Cc1ccc2ncn(C[C@H]3CCC[C@]4(C3)CN(Cc3cn(-c5cncc(C(F)(F)F)c5)nn3)C(=O)O4)c2c1` [Example 9, 1-{[(5S,7S)-2-Oxo-3-({1-[5-(trifluoromethyl)-3-pyridinyl]-1H-1,2,3-triazol-4-yl}methyl)-1-oxa-3-azaspiro[4.5]dec-7-yl]methyl}-1H-benzimidazole-6-carbonitrile], the IC50 lay within 0.0001 to 0.01 µM. Turning to `COC(C)c1noc(C(C)(C)CN2C[C@@]3(CCC[C@H](Cn4cnc5ccc(C#N)cc54)C3)OC2=O)n1` (stereo partly drawn) [Example 154, 1-{[(5S,7S)-3-(2-methyl-2-{3-[1-(methyloxy)ethyl]-1,2,4-oxadiazol-5-yl}propyl)-2-oxo-1-oxa-3-azaspiro[4.5]dec-7-yl]methyl}-1H-benzimidazole-6-carbonitrile], the IC50 fell in the range of 0.0001 to 0.01 µM. `CC(C)(C)c1cc(N2C[C@@]3(CCC[C@](C)(Cn4cnc5ccc(C#N)cc54)C3)OC2=O)no1` [Example 3, 1-({(5S,7S)-3-[5-(1,1-Dimethylethyl)-3-isoxazolyl]-7-methyl-2-oxo-1-oxa-3-azaspiro[4.5]dec-7-yl}methyl)-1H-benzimidazole-6-carbonitrile]: the IC50 fell in the range of 0.0001 to 0.01 µM. Turning to `C[C@]1(Cn2cnc3ccc(C#N)cc32)CCC[C@@]2(CN(c3cc(C4(C#N)CC4)no3)C(=O)O2)C1` [Example 38, 1-({(5S,7S)-3-[3-(1-cyanocyclopropyl)-5-isoxazolyl]-7-methyl-2-oxo-1-oxa-3-azaspiro[4.5]dec-7-yl}methyl)-1H-benzimidazole-6-carbonitrile], the IC50 lay within 0.01 to 0.05 µM. Take `N#Cc1ccc2ncn(C[C@H]3CCC[C@]4(C3)CN(Cc3cn(-c5ccc(Cl)cc5)nn3)C(=O)O4)c2c1` [Example 89]: the IC50 was 0.01 to 0.05 µM.

Take `COc1ccc(-c2csc(CN3C[C@@]4(CCC[C@H](Cn5cnc6ccc(C#N)cc65)C4)OC3=O)n2)cc1C` [Example 70, 1-{[(5S,7S)-3-({4-[3-methyl-4-(methyloxy)phenyl]-1,3-thiazol-2-yl}methyl)-2-oxo-1-oxa-3-azaspiro[4.5]dec-7-yl]methyl}-1H-benzimidazole-6-carbonitrile]: the IC50 lay within 0.0001 to 0.01 µM. In the case of `CCOc1cc(C)c(N2C[C@@]3(CCC[C@](C)(Cn4cnc5ccc(C#N)cc54)C3)OC2=O)cn1` [Example 118, 1-(((5S,7S)-3-(6-ethoxy-4-methylpyridin-3-yl)-7-methyl-2-oxo-1-oxa-3-azaspiro[4.5]decan-7-yl)methyl)-1H-benzo[d]imidazole-6-carbonitrile], the half-maximal inhibitory concentration (IC50) lay in the range of 0.0001 to 0.01 µM.

Take `N#Cc1ccc2ncn(C[C@H]3CCC[C@]4(C3)CN(Cc3cncc(-c5ccccc5)c3)C(=O)O4)c2c1` [Example 72, 1-({(5S,7S)-2-oxo-3-[(5-phenyl-3-pyridinyl)methyl]-1-oxa-3-azaspiro[4.5]dec-7-yl}methyl)-1H-benzimidazole-6-carbonitrile trifluoroacetate]: the IC50 lay within 0.05 to 0.5 µM. Regarding `C[C@]1(Cn2cnc3ccc(C#N)cc32)CCC[C@@]2(CN(c3cnc(C(F)(F)F)cn3)C(=O)O2)C1` [Example 115, 1-(((5S,7S)-7-methyl-2-oxo-3-(5-(trifluoromethyl)pyrazin-2-yl)-1-oxa-3-azaspiro[4.5]decan-7-yl)methyl)-1H-benzo[d]imidazole-6-carbonitrile], the IC50 was 0.0001 to 0.01 µM. Take `CC(C)(C)c1noc(N2C[C@@]3(CCC[C@](C)(Cn4cnc5ccc(C#N)cc54)C3)OC2=O)c1F` [Example 44, 1-(((5S,7S)-3-(3-(tert-butyl)-4-fluoroisoxazol-5-yl)-7-methyl-2-oxo-1-oxa-3-azaspiro[4.5]decan-7-yl)methyl)-1H-benzo[d]imidazole-6-carbonitrile]: the IC50 was in the range of 0.0001 to 0.01 µM. Consider `Cc1cnc(N2C[C@@]3(CCC[C@](C)(Cn4cnc5ccc(C#N)cc54)C3)OC2=O)c(C)n1` [Example 130, 1-(((5S,7S)-3-(3,5-dimethylpyrazin-2-yl)-7-methyl-2-oxo-1-oxa-3-azaspiro[4.5]decan-7-yl)methyl)-1H-benzo[d]imidazole-6-carbonitrile], for which the IC50 lay within 0.05 to 0.5 µM.
